{"source": "paper PMC6025150", "about": "“Synthesis, enzyme inhibitory kinetics mechanism and computational study of N-(4-methoxyphenethyl)-N-(substituted)-4-methylbenzenesulfonamides as novel therapeutic agents for Alzheimer’s disease” (PeerJ, 2018)", "key": {"[1]": {"target": "T1, acetylcholinesterase (from human erythrocytes) (Homo sapiens, UniProt P22303)", "T1 construct": "acetylcholinesterase (from human erythrocytes, purchased from Sigma-Aldrich, Seoul, Korea); purchased Sigma-Aldrich, Seoul, Korea; host or cells: human erythrocytes (natural source)", "T1 sequence (P22303 32-617 isoform P22303-2 limits assumed)": "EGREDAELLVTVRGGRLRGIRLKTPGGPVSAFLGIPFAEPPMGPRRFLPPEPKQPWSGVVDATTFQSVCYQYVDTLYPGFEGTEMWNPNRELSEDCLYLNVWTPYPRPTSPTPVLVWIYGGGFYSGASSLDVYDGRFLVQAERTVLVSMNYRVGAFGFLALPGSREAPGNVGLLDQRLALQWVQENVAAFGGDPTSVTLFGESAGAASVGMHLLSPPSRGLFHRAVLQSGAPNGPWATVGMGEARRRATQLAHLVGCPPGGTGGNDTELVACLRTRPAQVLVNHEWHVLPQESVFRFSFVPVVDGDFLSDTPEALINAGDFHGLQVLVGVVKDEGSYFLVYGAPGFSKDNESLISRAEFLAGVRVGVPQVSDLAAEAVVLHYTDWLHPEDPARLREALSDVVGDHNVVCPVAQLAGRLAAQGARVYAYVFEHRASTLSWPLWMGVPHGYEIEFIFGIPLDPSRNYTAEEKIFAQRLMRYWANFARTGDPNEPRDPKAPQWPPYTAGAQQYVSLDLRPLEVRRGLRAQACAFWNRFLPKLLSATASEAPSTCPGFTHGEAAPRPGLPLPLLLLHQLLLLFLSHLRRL", "assay": "biochemical", "set-up": "LogIC50 (best-fit value): unit not given here", "description": "The inhibitory activities of synthesized compounds were determined spectrophotometrically using acetylthiocholine iodide as substrate by following the method of ([Ellman et al., 1961]). Briefly, The assay solution consisted of 180 µL of 50 mM Tris-HCl buffer, pH 7.7, containing (0.1 M sodium chloride and 0.02 M magnesium chloride) and 20 µL of enzyme (AChE, EC 3.1.1.7), acetylcholinesterase (from human erythrocytes, purchased from Sigma-Aldrich, Seoul, Korea) solution (50 U per well); increasing concentrations of test compounds (10 µL) were added to the assay solution and pre incubated for 30 min at 4 °C. After that 5,5′ Dithiobis (2 nitrobenzoic acid) (0.3 mM, 20 µL) and acetylthiocholine iodide (1.8 mM, 20 µL) were added to the reaction mixture and incubated at 37 °C for 10 min, followed by the measurement of absorbance at 412 nm. For non-enzymatic reaction, the assays were carried out with a blank containing all components except acetylcholinesterase. The assay measurements were measured at 412 nm using a micro plate reader (OPTI Max Tunable; Molecular Devices, Sunnyvale, CA, USA) having a wave-length range from 340–850 nm; for 96 well plates. The reaction rates were compared and percent inhibition was calculated due to the presence of tested inhibitors. […] Each concentration was analyzed in three independent experiments run in triplicate. The IC50 values were calculated by nonlinear regression using GraphPad Prism 5.0.\nThe % of Inhibition of Acetylcholinesterase was calculated as following: Inhibition%=B−S∕B×100. Here, the B and S are the absorbance’s for the blank and samples."}, "[2]": {"target": "T1, acetylcholinesterase (from human erythrocytes)", "assay": "Determination of AChE inhibition kinetics (Lineweaver-Burk and secondary plots)", "assay_type": "biochemical", "description": "The reaction mixture consisted of 180 µL of 50 mM Tris-HCl buffer (pH 7.7); 10 µL of 5c at the different concentrations (0.00, 0.075 and 0.15 µM) and 20 µL enzyme AChE (50 U per well). We added 20 µL of DTNB 0.3 mM and 20 µL of ATCI substrate at the different concentrations (4, 2, 1, 0.5, 0.25 and 0.125 mM) and mixed, pre-incubated time was same as acetylcholinesterase assay. We measured the absorbance at 412 nm up to 5 min. Lineweaver-Burk plot of the inverse of velocities vs. the inverse of substrate concentration was used for assessment of the type of inhibition AChE kinetically. […] The results (change in absorbance per sec) were processed by using SoftMaxPro software."}}, "note": "“And” between values parts separate entries of the source, which are not always exact repeats. Equal entries are not always repeated. “Also recorded” adds a separate entry of the source. Where two headings read alike, the source gives them in different places."}
{"smiles": "COc1ccc(CCN(C(C)C)S(=O)(=O)c2ccc(C)cc2)cc1", "note": "[Compound 5c, N-(4-Methoxyphenethyl)-4-methyl-N-(2-propyl)benzensulfonamide]", "values": [{"measurement": "IC50", "setting": "[1]; each of three independent experiments, Raw Data of IC50 sheet, read-out: IC50, single experiment (converted)", "result": "0.0424 µM and 0.108 µM"}, {"measurement": "IC50", "setting": "[1]; from human erythrocytes, mean ± SEM, read-out: Acetylcholinesterase IC50 ± SEM", "result": "0.0751 ± 0.0189", "unit": "µM"}, {"measurement": "LogIC50 (best-fit value)", "setting": "[1]; log(inhibitor) vs. response fit, single run, IC50 Raw Data sheet", "result": -1.584}, {"measurement": "IC50", "setting": "[1]; log(inhibitor) vs. response fit, single run, unit inferred, IC50 Raw Data sheet, read-out: IC50 (best-fit value) (converted)", "result": 0.075, "unit": "µM"}, {"measurement": "IC50", "setting": "[1]; mean converted to uM, Raw Data of IC50 sheet, read-out: IC50", "result": 0.0751, "unit": "µM"}, {"measurement": "IC50", "setting": "[1]; mean of three experiments, Raw Data of IC50 sheet, read-out: IC50 (Mean) (converted)", "result": 0.0751, "unit": "µM"}, {"measurement": "type of inhibition", "setting": "[2]; Lineweaver-Burk plots", "result": "competitively; also recorded: competitive"}, {"measurement": "Slope of Lineweaver-Burk line", "setting": "[2]; compound 0.075 µM", "result": 1360.1}, {"measurement": "Vmax (1/V)", "setting": "[2]; compound 0.075 µM, substrate axis value 0.25", "result": 994.096}, {"measurement": "Vmax (1/V)", "setting": "[2]; compound 0.075 µM, substrate axis value 0.5", "result": 1353.4}, {"measurement": "Vmax (1/V)", "setting": "[2]; compound 0.075 µM, substrate axis value 1", "result": 2004.13}, {"measurement": "Vmax (1/V)", "setting": "[2]; compound 0.075 µM, substrate axis value 2", "result": 3323.6}, {"measurement": "Vmax (1/V)", "setting": "[2]; compound 0.075 µM, substrate axis value 4", "result": 5882.71}, {"measurement": "Vmax (1/V)", "setting": "[2]; compound 0.075 µM, substrate axis value 8", "result": 11587.8}, {"measurement": "Slope of Lineweaver-Burk line", "setting": "[2]; compound 0.15 µM", "result": 1563.63}, {"measurement": "Vmax (1/V)", "setting": "[2]; compound 0.15 µM, substrate axis value 0.25", "result": 1136.29}, {"measurement": "Vmax (1/V)", "setting": "[2]; compound 0.15 µM, substrate axis value 0.5", "result": 1514.8}, {"measurement": "Vmax (1/V)", "setting": "[2]; compound 0.15 µM, substrate axis value 1", "result": 2227.02}, {"measurement": "Vmax (1/V)", "setting": "[2]; compound 0.15 µM, substrate axis value 2", "result": 3687.56}, {"measurement": "Vmax (1/V)", "setting": "[2]; compound 0.15 µM, substrate axis value 4", "result": 6343.71}, {"measurement": "Vmax (1/V)", "setting": "[2]; compound 0.15 µM, substrate axis value 8", "result": 13371.1}, {"measurement": "Ki", "setting": "[2]; from Dixon / secondary plot of slope vs inhibitor concentration, read-out: inhibition constant Ki (EI dissociation constant)", "result": 2500, "unit": "nM"}]}
